Assay results as given in publication PMC8632988, “Inhibition of SYK and cSrc kinases can protect bone and cartilage in preclinical models of osteoarthritis and rheumatoid arthritis” (Scientific Reports, 2021).
“And” between values parts separate entries of the source, which are not always exact repeats. Equal entries are not always repeated. Where two headings read alike, the source gives them in different places.

Tests used:
[1] = target: SYK (Homo sapiens, UniProt P43405); assay: SYK inhibition luminescent assay; format: biochemical; set-up: 6xHis; made in house; host or cells: Sf9
Procedure: Luminescent assay was performed at A. N. Bakh Institute of Biochemistry (Moscow, Russia). Recombinant 6xHis-SYK kinase (expressed in Sf9 cells) was obtained as described previously. […] After incubation (20 min) Kinase-Glo reagent (Promega) was added. The luminescence was detected using the Fusion Universal Microplate Analyzer (PerkinElmer USA).

[2] = tested on: Sprague-Dowley rats, medial meniscal tear (MMT) model; assay: Surgically induced meniscal tear OA in rats; format: in vivo, rat; conditions: day 21
Procedure: Medial meniscal tear (MMT) model was performed at Pharmenterprises, Russia according to the published procedure[31] and approved by Ethics Committee of Pharmenterprises. Male 4-month old Sprague-Dowley rats were anesthetized with Zoletil (Vibrac, France) and Xylazine (Interchemie werken "De Adelaar" BV, Netherlands) mixture. The medial collateral ligament was transected, and the medial meniscus was grasped with a hemostat and reflected proximally toward the femur. The meniscus was transected and then skin was closed with sutures. 60–90 min after surgery rats were subcutaneously injected with flexoprofen (VIC GROUP, Russia). Treatment groups (20 rats each) were intragastrically treated with MT-SYK-03 (100 and 500 mg/kg) or vehicle control (0.5% methylcellulose solution) 24 h before OA induction and then once daily for 21 day. Active control group was subcutaneously injected with zoledronic acid (0.1 mg/kg) 24 h before OA induction and then once every three days for 21 day. After 21 day animals were sacrificed; surgically operated right knee was removed and used for image analysis.

[3] = Tissue distribution after single oral administration in rats; format: in vivo, rat; conditions: for Bone concentration / Joint concentration / Kidney concentration / Liver concentration / concentration at 2 h / concentration at 8 h / concentration at 24 h: 100 mg/kg PO, male Wistar rats, 100 mg/kg; for concentration at 2 h / concentration at 8 h / concentration at 24 h: po
Procedure: Experiments were performed at ChemPartner, Shanghai, China and approved by Institutional Ethics Committee (IEC) of ChemPartner. Male Wistar 10–12 weeks old rats with body weights of 185–220 g and male New Zealand rabbits with body weights of 2.0–2.3 kg were purchased from Shanghai SLAC Laboratory Animal Co., Ltd. MT-SYK-03 was administered to the three groups of rats (six rats per group) via oral gavage at 10 mL/kg concentration, and in rabbits 5 mL/kg concentration. Blood samples were kept on ice and centrifuged (2000 g, 4 ℃, 5 min) within 15 min post sampling.

[4] = 100 mg/kg intragastrically once daily
[5] = 500 mg/kg intragastrically once daily

SMILES: COc1cc(Nc2ncnc(Nc3cc4c(cn3)NC(=O)C(C)(C)O4)n2)cc(OC)c1OC [MT-SYK-03]
- IC50 ([1]; read-out: IC50, luminescent assay): 23 nM
- IC50 ([1]; span of luminescent and radiometric assays, read-out: IC50 (SYK), as given in Figure 1c): 14 nM and 23 to 40 nM
- Lesion area [2, 4]: 37.3 ± 3.3%
- Lesion depth [2, 4]: 72.5 ± 6.0%
- Lesion area [2, 5]: 30.5 ± 2.8%
- Lesion depth [2, 5]: 35.0 ± 3.0% and 35.0 ± 3.0& %
- Bone concentration ([3]; bone, 2 h, individual animals): 433 ng/mL and 576 ng/mL
- Bone concentration ([3]; bone, 8 h, individual animals): 1290 ng/mL and 681 ng/mL and 153 ng/mL
- Bone concentration ([3]; bone, 24 h, individual animals): 8.28 ng/mL and 19.9 ng/mL and 14.5 ng/mL
- Joint concentration ([3]; joint, 2 h, individual animals): 584 ng/mL and 631 ng/mL
- Joint concentration ([3]; joint, 8 h, individual animals): 1100 ng/mL and 673 ng/mL and 216 ng/mL
- Joint concentration ([3]; joint, 24 h, individual animals): 12.2 ng/mL and 20.4 ng/mL and 8.49 ng/mL
- Kidney concentration ([3]; kidney, 2 h, individual animals): 2880 ng/mL and 3160 ng/mL
- Kidney concentration ([3]; kidney, 8 h, individual animals): 1200 ng/mL and 375 ng/mL and 260 ng/mL
- Kidney concentration ([3]; kidney, 24 h, individual animals): 5.30 ng/mL and 72.0 ng/mL and 8.51 ng/mL
- Liver concentration ([3]; liver, 2 h, individual animals): 4700 ng/mL and 6610 ng/mL
- Liver concentration ([3]; liver, 8 h, individual animals): 1860 ng/mL and 635 ng/mL and 442 ng/mL
- Liver concentration ([3]; liver, 24 h, individual animals): 7.95 ng/mL and 115 ng/mL and 12.8 ng/mL
- Kp ([3]; male, Wistar, rat, bone and cartilage tissues, rats, single oral administration, read-out: Exposure in bone and cartilage tissues relative to plasma): 3
- concentration at 2 h ([3]; male, Wistar, rat, bone, bone, 2 h, individual animals, read-out: Bone concentration): 327 ng/mL
- concentration at 2 h ([3]; male, Wistar, rat, bone, bone, 2 h, mean, read-out: Bone concentration, Mean): 445 ng/mL
- concentration at 8 h ([3]; male, Wistar, rat, bone, bone, 8 h, mean, read-out: Bone concentration, Mean): 708 ng/mL
- concentration at 24 h ([3]; male, Wistar, rat, bone, bone, 24 h, mean, read-out: Bone concentration, Mean): 14.2 ng/mL
- concentration at 2 h ([3]; male, Wistar, rat, joint, joint, 2 h, individual animals, read-out: Joint concentration): 470 ng/mL
- concentration at 2 h ([3]; male, Wistar, rat, joint, joint, 2 h, mean, read-out: Joint concentration, Mean): 562 ng/mL
- concentration at 8 h ([3]; male, Wistar, rat, joint, joint, 8 h, mean, read-out: Joint concentration, Mean): 663 ng/mL
- concentration at 24 h ([3]; male, Wistar, rat, joint, joint, 24 h, mean, read-out: Joint concentration, Mean): 13.7 ng/mL
- concentration at 2 h ([3]; male, Wistar, rat, kidney, kidney, 2 h, individual animals, read-out: Kidney concentration): 2350 ng/mL
- concentration at 2 h ([3]; male, Wistar, rat, kidney, kidney, 2 h, mean, read-out: Kidney concentration, Mean): 2800 ng/mL
- concentration at 8 h ([3]; male, Wistar, rat, kidney, kidney, 8 h, mean, read-out: Kidney concentration, Mean): 612 ng/mL
- concentration at 24 h ([3]; male, Wistar, rat, kidney, kidney, 24 h, mean, read-out: Kidney concentration, Mean): 28.6 ng/mL
- concentration at 2 h ([3]; male, Wistar, rat, liver, liver, 2 h, individual animals, read-out: Liver concentration): 4450 ng/mL
- concentration at 2 h ([3]; male, Wistar, rat, liver, liver, 2 h, mean, read-out: Liver concentration, Mean): 5250 ng/mL
- concentration at 8 h ([3]; male, Wistar, rat, liver, liver, 8 h, mean, read-out: Liver concentration, Mean): 979 ng/mL
- concentration at 24 h ([3]; male, Wistar, rat, liver, liver, 24 h, mean, read-out: Liver concentration, Mean): 45.3 ng/mL
- concentration at 2 h ([3]; male, Wistar, rat, muscle, muscle, 2 h, individual animals, read-out: Muscle concentration): 456 ng/mL
- concentration at 2 h ([3]; male, Wistar, rat, muscle, muscle, 2 h, mean, read-out: Muscle concentration, Mean): 436 ng/mL
- concentration at 8 h ([3]; male, Wistar, rat, muscle, muscle, 8 h, individual animals, read-out: Muscle concentration): 160 ng/mL
- concentration at 8 h ([3]; male, Wistar, rat, muscle, muscle, 8 h, mean, read-out: Muscle concentration, Mean): 120 ng/mL
- concentration at 24 h ([3]; male, Wistar, rat, muscle, muscle, 24 h, individual animals, read-out: Muscle concentration): 4.68 ng/mL
- concentration at 24 h ([3]; male, Wistar, rat, muscle, muscle, 24 h, mean, read-out: Muscle concentration, Mean): 6.8 ng/mL
- concentration at 2 h ([3]; male, Wistar, rat, prostate, prostate, 2 h, individual animals, read-out: Prostate concentration): 1070 ng/mL
- concentration at 2 h ([3]; male, Wistar, rat, prostate, prostate, 2 h, mean, read-out: Prostate concentration, Mean): 1260 ng/mL
- concentration at 8 h ([3]; male, Wistar, rat, prostate, prostate, 8 h, mean, read-out: Prostate concentration, Mean): 251 ng/mL
- concentration at 24 h ([3]; male, Wistar, rat, prostate, prostate, 24 h, individual animals, read-out: Prostate concentration): 21.6 ng/mL
- concentration at 24 h ([3]; male, Wistar, rat, prostate, prostate, 24 h, mean, read-out: Prostate concentration, Mean): 21.6 ng/mL
- concentration at 2 h ([3]; male, Wistar, rat, spleen, spleen, 2 h, individual animals, read-out: Spleen concentration): 2060 ng/mL
- concentration at 2 h ([3]; male, Wistar, rat, spleen, spleen, 2 h, mean, read-out: Spleen concentration, Mean): 1910 ng/mL
- concentration at 8 h ([3]; male, Wistar, rat, spleen, spleen, 8 h, mean, read-out: Spleen concentration, Mean): 374 ng/mL
